This is an account of results in patent US5164380A, “Process for preparing piroxicam/cyclodextrin complexes, the products obtained and their pharmaceutical compositions” (Chiesi Farmaceutici S.p.A., priority 1990, dated 1992).

Converted amounts (≈) assume the structure as drawn.

Data set [1] is described as follows: Solubilization kinetics / solubility test (oversaturation, paddle method, continuous flow cell). An excerpt: This test, effected within a few minutes from the beginning of the solubilization process, provides data to be considered as one of the most important parameters for the biopharmaceutical evaluation of the products.
For data set [2] the following is noted: background, cited from earlier work.
Data set [3] in a line: Water-wettability by water contact angle analysis. The class given is physicochemical. An excerpt:
Data are given relevant to water-wettability determined by water contact angle analysis, true density determined by Helium pycnometry, and surface area determined by mercury porosimetry (Table 2).

The conditions of data set [4]: background; cited from earlier work.

For `CN1C(C(=O)Nc2ccccn2)=C(O)c2ccccc2S1(=O)=O` [piroxicam], the “C max (oversaturation value)” value in data set [1] (acetate buffer pH 5.0, 500 ml, 125 rpm, 37 °C, product at least 10 times saturation quantity) is 30000 ng/mL. In data set [1] (acetate buffer, pH 5, aqueous buffer), this molecule yielded a solubility (thermodynamic) of 30 µg/mL (≈ 90.5 µM). Moreover, the “analgesic and anti-inflammatory activity (in words)” value in data set [2] was “considerable analgesic and anti-inflammatory activity”. Also, the “absorption (in words)” value in data set [2] (oral and rectal routes) is “slow and gradual absorption via both the oral and rectal routes”. In data set [3], this molecule had a water contact angle of 76 °. Moreover, in data set [4], the “solubility (in words)” value was “poorly soluble in water and in biological fluids at physiological pH values”.

One may read the solubility (thermodynamic) as the concentration in solution at equilibrium with solid.
